Marks after values point to notes of the source that are not given here.
Molecular target: T1, mAChR M1 (UniProt P11229)
T1 sequence (P11229 1-460): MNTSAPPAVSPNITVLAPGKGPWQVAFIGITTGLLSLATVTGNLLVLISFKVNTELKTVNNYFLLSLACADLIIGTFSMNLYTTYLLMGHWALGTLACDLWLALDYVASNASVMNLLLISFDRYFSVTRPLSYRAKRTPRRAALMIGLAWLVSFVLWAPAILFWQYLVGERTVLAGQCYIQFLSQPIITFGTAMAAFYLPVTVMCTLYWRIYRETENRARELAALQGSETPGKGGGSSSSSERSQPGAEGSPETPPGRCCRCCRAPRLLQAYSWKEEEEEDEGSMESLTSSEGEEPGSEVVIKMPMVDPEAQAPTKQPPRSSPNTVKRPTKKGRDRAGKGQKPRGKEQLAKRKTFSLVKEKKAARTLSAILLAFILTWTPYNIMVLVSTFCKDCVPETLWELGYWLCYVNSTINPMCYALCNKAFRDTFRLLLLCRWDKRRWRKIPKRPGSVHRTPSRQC
Experiment: mAChR M1 cell-based functional assay (calcium mobilization, antagonist mode)
Conditions: for IC50: concentration of antagonist decreasing calcium flux by 50%, EC80 acetylcholine response, CHO-K1 cells expressing mAChR M1, read-out: Potency (IC50)
Excerpt: Chinese hamster ovary (CHO-K1) cells stably expressing rat (r)M1 were purchased from the American Type Culture Collection and cultured according to their indicated protocol. CHO cells stably expressing human (h)M2, hM3, and hM5 were described previously (Levey, et al., 1991); hM1 and hM4 cDNAs were purchased from Missouri S&T cDNA Resource; rM4 cDNA was provided by T. I. Bonner (National Institutes of Health, Bethesda, Md.). rM2 and rM3 were cloned from a rat brain cDNA library and sequence verified. hM1, rM2, rM3, hM4, and rM4 cDNAs were used to stably transfect CHO-K1 cells purchased from the American Type Culture Collection using Lipofectamine-2000. To make stable rM2, hM2, rM3, hM4, and rM4 cell lines for use in calcium mobilization assays, these cells also were stably transfected with a chimeric G-protein (Gqi5) (provided by B. R. Conklin, University of California, San Francisco) using Lipofectamine 2000. rM1, hM1, rM3, hM3, rM5, and hM5 cells were grown in Ham's F-12 medium containing 10% heat-inactivated fetal bovine serum (FBS), 20 mM HEPES, and 50 μg/mL G418 sulfate. rM2-Gqi5, hM2-Gqi5, and hM4-Gqi5 cells were grown in the same medium also containing 500 μg/mL Hygromycin B. Stable rM4-Gqi5 cells were grown in DMEM containing 10% heat-inactivated FBS, 20 mM HEPES, 400 μg/mL G418 sulfate, and […].
For high throughput measurement of antagonist inhibited increases in intracellular calcium, CHO-K1 cells stably expressing muscarinic receptors were plated in growth medium lacking G418 and hygromycin at 15,000 cells/20 μL/well in Greiner 384-well black-walled, tissue culture (TC)-treated, clear-bottom plates (VWR). Cells were incubated overnight at 37° C. and 5% CO2. The next day, cells were washed using an ELX 405 (BioTek) with four washes (80 μL) of assay buffer then aspirated to 20 μL. Next, 20 μL of 16 μM Fluo-4/acetoxymethyl ester (Invitrogen, Carlsbad, Calif.) prepared as a 2.3 mM stock in DMSO and mixed in a 1:1 ratio with 10% (w/v) Pluronic F-127 and diluted in assay buffer was added to the wells and the cell plates were incubated for 50 min at 37° C. and 5% CO2. Dye was removed by washing with the ELX 405 (four 80 μL washes of assay buffer) then aspirated to 20 μL. Compound master plates were formatted in an 11 point CRC format (1:3 dilutions) in 100% DMSO with a starting concentration of 10 mM using the BRAVO liquid handler (Agilent). Test compound CRCs were then transferred to daughter plates (240 nL) using the Echo acoustic plate reformatter (Labcyte, Sunnyvale, Calif.) and then diluted into assay buffer (40 μL) to a 2× stock using a Thermo Fisher Combi (Thermo Fisher Scientific, Waltham, Mass.).
Calcium flux was measured using the Functional Drug Screening System (FDSS) 6000 (Hamamatsu Corporation, Tokyo, Japan) as an increase in the fluorescent static ratio. Compounds were applied to cells (20 μL, 2×) using the automated system of the FDSS 6000 at 4 s into the 300 s protocol and the data were collected at 1 Hz. At 144 s into the 300 s protocol, 10 μL of an EC20 concentration of the muscarinic receptor agonist acetylcholine was added (5×), followed by the addition of 12 μL an EC80 concentration of acetylcholine at the 230 s time point (5×). Agonist activity was analyzed as a concentration-dependent increase in calcium mobilization upon compound addition. Positive allosteric modulator activity was analyzed as a concentration-dependent increase in the EC20 acetylcholine response. Antagonist activity was analyzed as a concentration-dependent decrease in the EC80 acetylcholine response. Concentration-response curves were generated using a four-parameter logistical equation in XLfit curve fitting software (IDBS, Bridgewater, N.J.) for Excel (Microsoft, Redmond, Wash.) or Prism (GraphPad Software, Inc., San Diego, Calif.).
The calcium mobilization assay was used to determine “potency”.

[1] = activity remaining at top dose of 30 μM test compound, as percentage of the response to an approx. EC80 concentration of ACh
[2] = dash = baseline or about zero remaining activity (table footnote)

SMILES | Remaining Activity (%) [1] | IC50 [nM] | Remaining Activity (%) [2]
O=C(C1CN(S(=O)(=O)c2cccc3cnccc23)C1)N1CCC(c2cccnc2)C1 (centres unmarked) [B48] | 30% | > 10000 | –
O=C(C1CN(S(=O)(=O)c2ccc3[nH]ncc3c2)C1)N1CCN(c2ccncc2)CC1 [B76] | ≧80% | > 10000 | –
Cn1cnc(S(=O)(=O)N2CC(C(=O)N3CCN(c4ccncc4)CC3)C2)c1 [B66] | ≧80% | > 10000 | –
O=C(C1CN(S(=O)(=O)c2ccc3[nH]c(=O)oc3c2)C1)N1CCN(c2ccncc2)CC1 [B75] | ≧80% | > 10000 | –
CN1C(=O)Cc2cc(S(=O)(=O)N3CC(C(=O)N4CCN(c5ccncc5)CC4)C3)ccc21 [B49] | 48% | > 10000 | –
O=C(C1CN(S(=O)(=O)c2cccc(OC(F)F)c2)C1)N1CCN(c2ccncc2)CC1 [B68] | ≧80% | > 10000 | –
O=C(C1CN(S(=O)(=O)c2ccc(OC(F)F)cc2)C1)N1CCN(c2ccncc2)CC1 [B63] | ≧80% | > 10000 | –
O=C(C1CN(S(=O)(=O)c2cccc(Cl)c2Cl)C1)N1CC2CN(c3ccncc3)CC2C1 (centres unmarked) [B58] | – | – | — (Unless otherwise indicated with a numerical value, the percent remaining activity is baseline or about zero, i.e. as indicated by “—”)
O=C(C1CN(S(=O)(=O)c2ccc3c(c2)OCO3)C1)N1CCN(c2ccncc2)CC1 [B9] | – | – | — (Unless otherwise indicated with a numerical value, the percent remaining activity is baseline or about zero, i.e. as indicated by “—”)
O=C(C1CN(S(=O)(=O)c2cccc3nsnc23)C1)N1CCN(c2ccncc2)CC1 [B28] | – | 2200 | — (Unless otherwise indicated with a numerical value, the percent remaining activity is baseline or about zero, i.e. as indicated by “—”)
O=C(C1CN(S(=O)(=O)c2cccc3c(Cl)nc(Cl)cc23)C1)N1CCN(c2ccncc2)CC1 [B30] | – | – | — (Unless otherwise indicated with a numerical value, the percent remaining activity is baseline or about zero, i.e. as indicated by “—”)
O=C(C1CN(S(=O)(=O)c2cccc3cnccc23)C1)N1CCc2cccnc2C1 [B51] | 60% | > 10000 | –
Cn1ccc2cc(S(=O)(=O)N3CC(C(=O)N4CCN(c5ccncc5)CC4)C3)ccc21 [B50] | 59% | > 10000 | –
O=C(C1CN(S(=O)(=O)c2ccc3ncccc3c2)C1)N1CCN(c2ccncc2)CC1 [B15] | – | – | — (Unless otherwise indicated with a numerical value, the percent remaining activity is baseline or about zero, i.e. as indicated by “—”)
COc1ccc(S(=O)(=O)N2CC(C(=O)N3CCN(c4ccncc4)CC3)C2)cn1 [B38] | 23% | > 10000 | –
O=C(C1CN(S(=O)(=O)c2ccc3[nH]c(=O)sc3c2)C1)N1CCN(c2ccncc2)CC1 [B70] | ≧80% | > 10000 | –
O=C(C1CN(S(=O)(=O)c2ccc(C(F)(F)F)nc2)C1)N1CCN(c2ccncc2)CC1 [B41] | 37% | > 10000 | –
O=C1CCc2cc(S(=O)(=O)N3CC(C(=O)N4CCN(c5ccncc5)CC4)C3)ccc2N1 [B79] | ≧80% | > 10000 | –
O=C(C1CN(S(=O)(=O)c2ccccc2OC(F)(F)F)C1)N1CCN(c2ccncc2)CC1 [B29] | – | 2800 | — (Unless otherwise indicated with a numerical value, the percent remaining activity is baseline or about zero, i.e. as indicated by “—”)
O=C(C1CN(S(=O)(=O)c2ccc3cn[nH]c3c2)C1)N1CCN(c2ccncc2)CC1 [B37] | 26% | > 10000 | –
O=C(C1CN(S(=O)(=O)c2cccc3cnccc23)C1)N1CCN(c2ccncn2)CC1 [B20] | – | – | — (Unless otherwise indicated with a numerical value, the percent remaining activity is baseline or about zero, i.e. as indicated by “—”)
O=C(C1CN(S(=O)(=O)c2cccc3nonc23)C1)N1CCC(O)(c2ccncc2)CC1 [B61] | ≧80% ** | > 10000 | –

Continued by falling IC50, values first:

Remaining Activity (%) [1] | IC50 [nM] | SMILES | Remaining Activity (%) [2]
– | 1500 | O=C(C1CN(S(=O)(=O)c2ccc3occc3c2)C1)N1CCN(c2ccncc2)CC1 [B24] | — (Unless otherwise indicated with a numerical value, the percent remaining activity is baseline or about zero, i.e. as indicated by “—”)
– | 740 | Cn1cc(S(=O)(=O)N2CC(C(=O)N3CCN(c4ccncc4)CC3)C2)cn1 [B18] | — (Unless otherwise indicated with a numerical value, the percent remaining activity is baseline or about zero, i.e. as indicated by “—”)
– | 640 | O=C(C1CN(S(=O)(=O)c2cccc3c(Cl)nccc23)C1)N1CCN(c2ccncc2)CC1 [B17] | — (Unless otherwise indicated with a numerical value, the percent remaining activity is baseline or about zero, i.e. as indicated by “—”)
– | 620 | O=C(C1CN(S(=O)(=O)c2cccc(Cl)c2Cl)C1)N1CCN(c2ccncc2)CC1 [B16] | — (Unless otherwise indicated with a numerical value, the percent remaining activity is baseline or about zero, i.e. as indicated by “—”)
– | 350 | O=C(C1CN(S(=O)(=O)c2cccc3nonc23)C1)N1CCN(c2ccc(Br)cn2)CC1 [B11] | — (Unless otherwise indicated with a numerical value, the percent remaining activity is baseline or about zero, i.e. as indicated by “—”)
– | 350 | O=C(C1CN(S(=O)(=O)c2ccc(Cl)nc2)C1)N1CCN(c2ccncc2)CC1 [B12] | — (Unless otherwise indicated with a numerical value, the percent remaining activity is baseline or about zero, i.e. as indicated by “—”)
– | 290 | O=C(C1CN(S(=O)(=O)c2cccc3nonc23)C1)N1CCN(c2ccncc2)CC1 [B8] | — (Unless otherwise indicated with a numerical value, the percent remaining activity is baseline or about zero, i.e. as indicated by “—”)
– | 87 | O=C(C1CN(S(=O)(=O)c2cccc3cnccc23)C1)N1CC2CN(c3ccccn3)CC2C1 (centres unmarked) [B4] | — (Unless otherwise indicated with a numerical value, the percent remaining activity is baseline or about zero, i.e. as indicated by “—”)
– | 57 | O=C(C1CN(S(=O)(=O)c2cccc3cnccc23)C1)N1CC2CN(c3ccncc3)CC2C1 (centres unmarked) [B3] | — (Unless otherwise indicated with a numerical value, the percent remaining activity is baseline or about zero, i.e. as indicated by “—”)
– | 48 | O=C(C1CN(S(=O)(=O)c2cccc3cnccc23)C1)N1CCN(c2ccnc(Cl)c2)CC1 [B2] | — (Unless otherwise indicated with a numerical value, the percent remaining activity is baseline or about zero, i.e. as indicated by “—”)
